Laboratory results taken from patent US5137811A, “Method for diagnosing periodontal diseases with a substrate specific for aminopeptidase activity of periodontopathic bacteria” (Sunstar Kabushiki Kaisha, priority 1986, dated 1992).
One block for each compound: values may come before it. Where a SMILES comes first, the peptide text is derived from it. The star is where a group is joined. pNA = O=[N+]([O-])c1ccc(N*)cc1; βNA = c1ccc2cc(N*)ccc2c1

Legend:
[1] = test system: periodontopathic bacteria specific aminopeptidase activity; assay: Hydrolytic activity of saliva supernatant (Experiment 8); format: biochemical; details: 37° C. for 4 hours, Table 8
Experimental: (§1) A saliva mixture was collected from a group consisting of ten healthy subjects and centrifuged to obtain a supernatant. Likewise, centrifuged supernatants were obtained from a group of ten subjects with adult periodontitis and a group of four localized juvenile periodontitis. The supernatant was used as a specimen and its hydrolytic activity was determined according to the same manner as described in Experiment 4 except that the reaction was carried out at 37° C. for 4 hours. As the substrates, there were used N-carbobenzoxy-valyl-glycyl-arginine-p-nitrophenol (CxVGR-pNP), N-carbobenzoxy-valyl-glycylarginine-4-methoxy-2-naphthylamide (CxVGR-4NA) and N-carbobenzoxy-valyl-glycyl-arginine-β-naphthylamide (CxVGR-βNA). Color was developed by using lN sodium hydroxide for CxVGR-pNP and Fast Blue BB for CxVGR-4NA and CxVGR-βNA.
According to the same manner as described in Experiment 7, hydrolytic activity was tested by using lysylproline-p-nitroanilide (KP-pNA), lysyl-proline-4-methoxy-2-naphthylamide (KP-4NA) and lysyl-proline-β-naphthylamide (KP-βNA)as the substrates. Color was developed by using lN sodium hydroxide for KP-pNA and Fast Blue BB for KP-4-NA and KP-βNA.

[2] = test system: periodontopathic bacteria specific aminopeptidase activity; assay: Hydrolytic activity of saliva supernatant, substrates alone or in combination (Experiment 9); format: biochemical; details: 37° C. for 4 hours, Table 9
Experimental: as §1
According to the same manner as described in Experiment 7, hydrolytic activity was tested by using N-carbobenzoxy-valyl-glycyl-arginine-β-naphthylamide (CxVGR-βNA), N-benzoyl-arginyl-glycyl-phenylalanyl-proline-β-naphthylamide (BzRGFP-βNA), N-carbobenzoxy-valyl-glycylarginine-p-nitrophenol (CxVGR-pNP) and N-benzoyl-arginylglycyl-phenylalanyl-proline-p-nitrophenol (BzRGFP-pNP) alone or in combination as the substrates.

[3] = test system: periodontopathic bacteria specific aminopeptidase activity; assay: Hydrolytic activity of saliva supernatant (Experiment 7); format: biochemical; details: 37° C. for 4 hours, Table 7
Experimental: (§2) Specimens of gingival crevicular fluid were collected with paper points from five subjects who were considered to be healthy from their clinical state, six subjects with gingivitis and six subjects with periodontitis. Each specimen was dispersed in Ringer's solution (1.5 ml), and the relative amount of spirochete to total bacteria: [formula] was determined with a phase contrast microscope. Further, the Ringer's solution (0.3 ml) was tested for hydrolytic activity using the substrate solution prepared in the same manner as described in Experiment 1. As substrates, there were used compounds of the formula [1], i.e., N-benzoylvalyl-glycyl-arginine-β-naphthylamide (BzVGR) and N-carbobenzoxy-valyl-glycyl-arginine-β-naphthylamide (CxVGR) were used.
as §1

B. gingivalis [4] = assay: Hydrolytic activity of cell suspension, substrates alone or in combination (Experiment 3); format: cell-based; details: five strains, Table 3
Experimental: (§3) The strains of Treponema were anaerobically cultivated using TYGVS media at 37° C. for 7 days, while other bacterial strains were cultivated using brain heart infusion broth at 37° C. for 48 to 72 hours. Each culture was diluted to obtain a bacterial cell suspension, the absorption at 660 nm of which was 1.0.
(§4) Substrate compounds for aminopeptidase enzyme having various color developing groups derived from β-naphthylamine were dissolved in 0.1M Tris-HCl buffer (pH 7.0) at the concentration of 0.2 mM to obtain substrate solutions.
(§5) To the substrate solution (1.5 ml) was added the above cell suspension (0.3 ml) and reacted at 37° C. for 60 minutes. After completion of the reaction, a coloring reagent [prepared by dissolving diazonium salt of Garnet GBC in 1M acetate buffer (containing 10% Tween 20, pH: 4.2) at the concentration of 0.5 mg/ml] was added and, after 15 minutes, the absorption at 525 nm was determined with a spectrophotometer.
(§6) On the basis of the average amount of released β-naphthylamine in each strain, the hydrolytic activity was expressed as follows: […]
(§7) According to the same manner as described in Experiment 1, periodontopathic bacteria specific aminopeptidase activity was tested by using four strains of Treponema denticola, five strains of B. gingivalis, four strains of Actinobacillus actinomycetemcomitans, two strains of Actinomyces israelli and three strains of Fusobacterium nucleatum. Abbreviations in Table 3 are the same as those in Tables 1 and 2. Hydrolytic activity "+++" means "40≤release amount<80 nmol/ml" and "++++" means "release amount≥80 nmol/ml".

Treponema denticola [5] = assay: as above; format: cell-based; details: four strains, Table 3
Experimental: as §3, §4, §5, §6, §7

Actinomyces israelli [6] = assay: as above; format: cell-based; details: two strains, Table 3
Experimental: as §3, §4, §5, §6, §7

[7] = test system: Actinobacillus actinomycetemcomitans; assay: as above; format: cell-based; details: four strains, Table 3
Experimental: as §3, §4, §5, §6, §7

Fusobacterium nucleatum [8] = assay: as above; format: cell-based; details: three strains, Table 3
Experimental: as §3, §4, §5, §6, §7

Treponema denticola [9] = assay: Hydrolytic activity of oral anaerobe cell suspension on aminopeptidase substrates (Experiment 1); format: cell-based; details: four strains, substrate 0.2 mM, pH 7.0, 37° C., 60 minutes, Table 1
Experimental: (§8) Oral anaerobes, i.e., four strains of Treponema denticola, five strains of B. gingivalis, four strains of Actinobacillus actinomycetemcomitans, four strains of Capnocytophaga sp. and three strains of Fusobacterium nucleatum were tested for hydrolytic activity to the substrate of aminopeptidase enzyme as follows.
as §3, §4, §5, §6

[10] = test system: Actinobacillus actinomycetemcomitans; assay: as above; format: cell-based; details: four strains, substrate 0.2 mM, pH 7.0, 37° C., 60 minutes, Table 1
Experimental: as §8, §3, §4, §5, §6

Capnocytophaga sp. = assay: as above; format: cell-based; details: four strains, substrate 0.2 mM, pH 7.0, 37° C., 60 minutes, Table 1
Experimental: as §8, §3, §4, §5, §6

Fusobacterium nucleatum [11] = assay: as above; format: cell-based; details: three strains, substrate 0.2 mM, pH 7.0, 37° C., 60 minutes, Table 1
Experimental: as §8, §3, §4, §5, §6

Bacteroides gingivalis = assay: as above; format: cell-based; details: five strains, substrate 0.2 mM, pH 7.0, 37° C., 60 minutes, Table 1
Experimental: as §8, §3, §4, §5, §6

[12] = test system: periodontopathic bacteria specific aminopeptidase activity; assay: Hydrolytic activity of gingival crevicular fluid specimens, visually evaluated (Experiment 5); format: biochemical; set-up: key: -: orange; +: dark orange; ++: brown; +++: dark brown
Experimental: as §4, §5, §2
In table 4, hydrolytic activity was visually evaluated and expressed as follows: […]
According to the same manner as described in Experiment 4, hydrolytic activity was tested by using the compounds of the formula [2], i.e., lysyl-proline-β-naphthylamide (KP) and N-carbobenzoxy-prolyl-alanyl-glycylproline-β-naphthylamide (CxPAGP) as the substrates.

B. gingivalis [13] = assay: Hydrolytic activity of cell suspension on aminopeptidase substrates (Experiment 2); format: cell-based; details: five strains, Table 2
Experimental: as §3, §4, §5, §6
(§9) According to the same manner as described in Experiment 1, periodontopathic bacteria specific aminopeptidase activity was tested by using four strains of Treponema denticola, five strains of B. gingivalis, three strains of B. intermedius, two strains of B. melaninogenicus, two strains of Actinomyces israelli, four strains of Actinobacillus actinomycetemcomitans and three strains of Fusobacterium nucleatum. Abbreviations used in Table 2 mean the following substrate compounds.

B. melaninogenicus = assay: as above; format: cell-based; details: two strains, Table 2
Experimental: as §3, §4, §5, §6, §9

Treponema denticola [14] = assay: as above; format: cell-based; details: four strains, Table 2
Experimental: as §3, §4, §5, §6, §9

Actinomyces israelli [15] = assay: as above; format: cell-based; details: two strains, Table 2
Experimental: as §3, §4, §5, §6, §9

[16] = test system: Actinobacillus actinomycetemcomitans; assay: as above; format: cell-based; details: four strains, Table 2
Experimental: as §3, §4, §5, §6, §9

B. corporis = assay: as above; format: cell-based; details: Table 2
Experimental: as §3, §4, §5, §6, §9

Fusobacterium nucleatum [17] = assay: as above; format: cell-based; details: three strains, Table 2
Experimental: as §3, §4, §5, §6, §9

B. intermedius = assay: as above; format: cell-based; details: three strains, Table 2
Experimental: as §3, §4, §5, §6, §9

B. denticola = assay: as above; format: cell-based; details: Table 2
Experimental: as §3, §4, §5, §6, §9

[18] = Localized juvenile periodontitis subjects

Compound: N-benzoyl-arginylglycyl-phenylalanyl-proline-p-nitrophenol [BzRGFP-pNP]
- hydrolytic activity ([2]; Adult Periodontitis subjects): 25.6 ± 8.4 nmol/mL
- hydrolytic activity ([2]; Healthy subjects): 13.3 ± 4.9 nmol/mL
- hydrolytic activity [2, 18]: 21.8 ± 7.8 nmol/mL

Compound: N-carbobenzoxy-valyl-glycyl-arginine-p-nitrophenol [CxVGR-pNP]
- hydrolytic activity ([3]; Adult Periodontitis subjects): 34.0 ± 9.7 nmol/mL
- hydrolytic activity ([3]; Healthy subjects): 17.0 ± 11.4 nmol/mL
- hydrolytic activity [3, 18]: 32.5 ± 9.6 nmol/mL
- hydrolytic activity ([2]; Adult Periodontitis subjects): 33.5 ± 11.5 nmol/mL
- hydrolytic activity ([2]; Healthy subjects): 14.0 ± 7.9 nmol/mL
- hydrolytic activity [2, 18]: 28.8 ± 9.1 nmol/mL

Compound: N=C(N)NCCC[C@H](NC(=O)CN)C(=O)Nc1ccc2ccccc2c1 [GR, glycyl-arginine-β-naphthylamide] (H-Gly-Arg-βNA)
- hydrolytic activity (release amount) (B. gingivalis [4]): ++ (20 ≤release amount<40 nmol/ml)
- hydrolytic activity (release amount) (Treponema denticola [5]): + (10 ≤release amount<20 nmol/ml)
- hydrolytic activity (release amount) (Actinomyces israelli [6]): - (release amount<5 nmol/ml)
- hydrolytic activity (release amount) [7]: - (release amount<5 nmol/ml)
- hydrolytic activity (release amount) (Fusobacterium nucleatum [8]): - (release amount<5 nmol/ml)
- hydrolytic activity (average amount of released β-naphthylamine) (Treponema denticola [9]): + (10 ≤release amount<20 nmol/ml)
- hydrolytic activity (average amount of released β-naphthylamine) [10]: - (release amount<5 nmol/ml)
- hydrolytic activity (average amount of released β-naphthylamine) (Capnocytophaga sp.): ± (5 ≤release amount<10 nmol/ml)
- hydrolytic activity (average amount of released β-naphthylamine) (Fusobacterium nucleatum [11]): - (release amount<5 nmol/ml)
- hydrolytic activity (average amount of released β-naphthylamine) (Bacteroides gingivalis): ++ (20 ≤release amount<40 nmol/ml)

Compound: COc1cc(NC(=O)[C@H](CCCNC(=N)N)NC(=O)CNC(=O)[C@@H](NC(=O)OCc2ccccc2)C(C)C)cc2ccccc12 [CxVGR-4NA, N-carbobenzoxy-valyl-glycylarginine-4-methoxy-2-naphthylamide]
- hydrolytic activity ([3]; Adult Periodontitis subjects): 34.6 ± 8.9 nmol/mL
- hydrolytic activity ([3]; Healthy subjects): 18.0 ± 10.8 nmol/mL
- hydrolytic activity [3, 18]: 32.3 ± 8.9 nmol/mL

Now from value to compound, other results behind:

- hydrolytic activity ([1]; Adult Periodontitis subjects): 35.5 ± 10.1 nmol/mL
- hydrolytic activity ([1]; Healthy subjects): 16.0 ± 10.8 nmol/mL
- hydrolytic activity [1, 18]: 32.3 ± 8.9 nmol/mL
Compound: COc1cc(NC(=O)[C@@H]2CCCN2C(=O)[C@@H](N)CCCCN)cc2ccccc12 [KP-4NA, lysyl-proline-4-methoxy-2-naphthylamide]

- hydrolytic activity, visually evaluated ([12]; Gingivitis subject 1 (spirochete 7.3 %)): +
- hydrolytic activity, visually evaluated ([12]; Gingivitis subject 2 (spirochete 16.7 %)): +
- hydrolytic activity, visually evaluated ([12]; Gingivitis subject 3 (spirochete 20.5 %)): ++
- hydrolytic activity, visually evaluated ([12]; Gingivitis subject 4 (spirochete 6.8 %)): -
- hydrolytic activity, visually evaluated ([12]; Gingivitis subject 5 (spirochete 7.3 %)): -
- hydrolytic activity, visually evaluated ([12]; Gingivitis subject 6 (spirochete 14.4 %)): +
- hydrolytic activity, visually evaluated ([12]; Healthy subject 1 (spirochete 0.1 %)): -
- hydrolytic activity, visually evaluated ([12]; Healthy subject 2 (spirochete 2.5 %)): +
- hydrolytic activity, visually evaluated ([12]; Healthy subject 3 (spirochete 1.1 %)): -
- hydrolytic activity, visually evaluated ([12]; Healthy subject 4 (spirochete 0.6 %)): -
- hydrolytic activity, visually evaluated ([12]; Healthy subject 5 (spirochete 1.3 %)): -
- hydrolytic activity, visually evaluated ([12]; Periodontitis subject 1 (spirochete 45.2 %)): +++
- hydrolytic activity, visually evaluated ([12]; Periodontitis subject 2 (spirochete 30.3 %)): +++
- hydrolytic activity, visually evaluated ([12]; Periodontitis subject 3 (spirochete 34.6 %)): +++
- hydrolytic activity, visually evaluated ([12]; Periodontitis subject 4 (spirochete 21.2 %)): +++
- hydrolytic activity, visually evaluated ([12]; Periodontitis subject 5 (spirochete 40.3 %)): +++
- hydrolytic activity, visually evaluated ([12]; Periodontitis subject 6 (spirochete 35.1 %)): +++
- hydrolytic activity ([1]; Adult Periodontitis subjects): 36.2 ± 9.9 nmol/mL
- hydrolytic activity ([1]; Healthy subjects): 16.1 ± 10.3 nmol/mL
- hydrolytic activity [1, 18]: 33.4 ± 10.0 nmol/mL
Compound: NCCCC[C@H](N)C(=O)N1CCC[C@H]1C(=O)Nc1ccc2ccccc2c1 [KP, lysyl-proline-β-naphthylamide] (H-Lys-Pro-βNA)
- hydrolytic activity (average amount of released β-naphthylamine) (B. gingivalis [13]): +++ (release amount≥40 nmol/ml)
- hydrolytic activity (average amount of released β-naphthylamine) (B. melaninogenicus): ++ (20 ≤release amount<40 nmol/ml)
- hydrolytic activity (average amount of released β-naphthylamine) (Treponema denticola [14]): ++ (20 ≤release amount<40 nmol/ml)
- hydrolytic activity (average amount of released β-naphthylamine) (Actinomyces israelli [15]): - (release amount<5 nmol/ml)
- hydrolytic activity (average amount of released β-naphthylamine) [16]: - (release amount<5 nmol/ml)
- hydrolytic activity (average amount of released β-naphthylamine) (B. corporis): ++ (20 ≤release amount<40 nmol/ml)
- hydrolytic activity (average amount of released β-naphthylamine) (Fusobacterium nucleatum [17]): - (release amount<5 nmol/ml)
- hydrolytic activity (average amount of released β-naphthylamine) (B. intermedius): ++ (20 ≤release amount<40 nmol/ml)
- hydrolytic activity (average amount of released β-naphthylamine) (B. denticola): ++ (20 ≤release amount<40 nmol/ml)

- hydrolytic activity ([1]; Adult Periodontitis subjects): 34.3 ± 9.8 nmol/mL
- hydrolytic activity ([1]; Healthy subjects): 15.0 ± 9.4 nmol/mL
- hydrolytic activity [1, 18]: 31.5 ± 9.7 nmol/mL
Compound: NCCCC[C@H](N)C(=O)N1CCC[C@H]1C(=O)Nc1ccc([N+](=O)[O-])cc1 [KP-pNA, lysylproline-p-nitroanilide] (H-Lys-Pro-pNA)
